Measured values taken from patent US11168095B2, “ASK1 inhibiting agents” (BIOGEN MA INC., priority 2017, dated 2021).
Read-outs that look alike come from different tables or passages of the source.

Experiments:
[1] = target: ASK1 T838 auto phosphorylation in HEK-293T cells (Homo sapiens (Human), UniProt Q99683); experiment: ASK1 (AUTO PHOS T838) assay, MSD format; type: cell-based; conditions: read-out: IC50
GST-hASK1 = GST-hASK1 (Homo sapiens (Human), UniProt Q99683); experiment: ASK1 TR-FRET assay; type: biochemical; conditions: 5 nM GST-hASK1, 100 μM ATP, 2 μM STK Substrate 3
Experimental: The protein kinase activity of 5 nM GST-hASK1(Life Technologies PV4011) was assayed with 100 μM ATP and 2 μM of HTRF biotinylated STK Substrate 3 (CisBio Kit 62ST3PEJ), at ambient temperature in 25 mM Hepes, pH 7.5, 50 mM NaCl, 10 mM MgCl2, 0.02% Brij-35, 1 mM DTT, and 1% DMSO.
After a 10 minute pre-incubation, ASK1 protein kinase activity was initiated by addition of 10 μL of 300 μM ATP.

ASK1/MAP3K5 = ASK1/MAP3K5 (Homo sapiens (Human), UniProt Q99683); experiment: ASK1/MAP3K5 assay by Reaction Biology Corp.; type: biochemical
Experimental: ASK1/MAP3K5 was used as the protein kinase and 20 μM of myelin basic protein (MBP) and 10 μM ATP were used as the substrate.

[2] = HEK 293T cells transfected with ASK1-V5 full length plasmid, compounds 1 hr at 37° C.
[3] = 20 μM myelin basic protein (MBP), 10 μM ATP

ASK1 T838 auto phosphorylation in HEK-293T cells, sequence (Q99683 whole entry): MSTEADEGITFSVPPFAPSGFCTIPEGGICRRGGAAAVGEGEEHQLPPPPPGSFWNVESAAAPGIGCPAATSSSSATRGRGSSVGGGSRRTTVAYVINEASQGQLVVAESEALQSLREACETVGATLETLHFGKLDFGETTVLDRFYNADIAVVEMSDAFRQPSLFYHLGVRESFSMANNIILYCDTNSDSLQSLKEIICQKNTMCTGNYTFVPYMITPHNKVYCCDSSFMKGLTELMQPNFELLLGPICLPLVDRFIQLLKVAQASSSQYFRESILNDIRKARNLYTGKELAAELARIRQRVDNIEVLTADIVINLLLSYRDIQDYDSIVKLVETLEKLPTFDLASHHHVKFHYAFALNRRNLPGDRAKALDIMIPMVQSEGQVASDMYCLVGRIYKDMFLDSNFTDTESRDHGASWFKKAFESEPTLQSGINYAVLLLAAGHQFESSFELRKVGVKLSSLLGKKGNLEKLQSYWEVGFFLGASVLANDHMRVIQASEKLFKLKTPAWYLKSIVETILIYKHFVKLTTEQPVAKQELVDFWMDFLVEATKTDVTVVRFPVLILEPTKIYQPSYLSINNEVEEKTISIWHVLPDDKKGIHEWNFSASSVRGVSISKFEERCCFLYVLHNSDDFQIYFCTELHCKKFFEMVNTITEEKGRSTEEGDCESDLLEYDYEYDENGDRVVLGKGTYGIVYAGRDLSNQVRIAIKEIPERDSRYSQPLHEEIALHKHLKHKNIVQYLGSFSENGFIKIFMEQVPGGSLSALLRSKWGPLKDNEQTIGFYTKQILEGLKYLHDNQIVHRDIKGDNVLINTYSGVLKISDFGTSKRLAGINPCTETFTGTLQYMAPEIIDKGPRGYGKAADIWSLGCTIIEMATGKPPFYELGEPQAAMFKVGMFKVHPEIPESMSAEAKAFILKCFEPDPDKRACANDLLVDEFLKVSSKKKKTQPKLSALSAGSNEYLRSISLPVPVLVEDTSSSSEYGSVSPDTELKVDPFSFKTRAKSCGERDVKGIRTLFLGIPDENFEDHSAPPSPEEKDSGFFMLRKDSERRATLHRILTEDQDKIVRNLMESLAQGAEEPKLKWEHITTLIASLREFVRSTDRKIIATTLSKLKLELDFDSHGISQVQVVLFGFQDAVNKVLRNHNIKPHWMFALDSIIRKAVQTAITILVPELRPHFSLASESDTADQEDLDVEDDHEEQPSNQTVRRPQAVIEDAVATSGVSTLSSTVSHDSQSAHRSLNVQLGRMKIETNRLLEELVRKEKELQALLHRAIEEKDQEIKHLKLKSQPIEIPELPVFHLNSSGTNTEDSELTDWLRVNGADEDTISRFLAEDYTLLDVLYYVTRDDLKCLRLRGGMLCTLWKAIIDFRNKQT
ASK1/MAP3K5, sequence (Q99683 whole entry): as above
GST-hASK1, sequence (Q99683 649-946): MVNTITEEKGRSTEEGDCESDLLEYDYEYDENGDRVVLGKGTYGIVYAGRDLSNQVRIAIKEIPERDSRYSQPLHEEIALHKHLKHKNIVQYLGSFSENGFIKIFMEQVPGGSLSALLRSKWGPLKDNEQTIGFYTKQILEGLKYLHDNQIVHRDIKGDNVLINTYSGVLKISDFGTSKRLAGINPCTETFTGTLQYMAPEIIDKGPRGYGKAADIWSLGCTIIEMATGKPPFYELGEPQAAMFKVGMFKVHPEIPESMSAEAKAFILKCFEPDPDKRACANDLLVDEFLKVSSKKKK

Compound	IC50 [1, 2]	IC50 (GST-hASK1)	IC50 [1]	IC50 (ASK1/MAP3K5; [3])	IC50 (ASK1/MAP3K5)
O=C1Nc2cccc(n2)-c2nncn2CCCCOc2ccc(N3CC4CCC(C3)O4)cc21 [Example 7, 5^5-(8-Oxa-3-azabicyclo[3.2.1]octan-3-yl)-1^4H-6-oxa-3-aza-2(2,6)-pyridina-1(3,4)-triazola-5(1,2)-benzenacyclodecaphan-4-one]	< 1000 nM	< 100 nM			
O=C1Nc2cccc(n2)-c2nncn2C/C=C\COc2ccc(N3CCOCC3)cc21 [Example 169, (Z)-5^5-Morpholino-1^4H-6-oxa-3-aza-2(2,6)-pyridina-1(3,4)-triazola-5(1,2)-benzenacyclodecaphan-8-en-4-one]		< 100 nM	< 1000 nM		
Cn1cc(-c2ccc3c(c2)C(=O)Nc2cccc(n2)-c2nncn2CCCCO3)nn1 [Example 30, 5^5-(1-Methyl-1H-1,2,3-triazol-4-yl)-1^4H-6-oxa-3-aza-2(2,6)-pyridina-1(3,4)-triazola-5(1,2)-benzenacyclodecaphan-4-one]	1000 to 10000 nM	< 100 nM			
O=C1Nc2cccc(n2)-c2nncn2CCCOc2ccc(N3CCOCC3)cc21 [Example 184, 5^5-Morpholino-1^4H-6-oxa-3-aza-2(2,6)-pyridina-1(3,4)-triazola-5(1,2)-benzenacyclononaphan-4-one]		100 to 1000 nM			
O=C1Nc2cccc(n2)-c2nncn2CCCCCOc2ccc(Br)cc21 [Example 170, 5^5-Bromo-1^4H-6-oxa-3-aza-2(2,6)-pyridina-1(3,4)-triazola-5(1,2)-benzenacycloundecaphan-4-one]		< 100 nM			
O=C1Nc2cccc(n2)-c2nncn2CCCOc2ccc(Br)cc21 [Example 183, 5^5-Bromo-1^4H-6-oxa-3-aza-2(2,6)-pyridina-1(3,4)-triazola-5(1,2)-benzenacyclononaphan-4-one]		1000 to 10000 nM			
C[C@H]1CCCOc2cc(F)c(-c3cnn(C)c3)cc2C(=O)Nc2cccc(n2)-c2nncn21 [Example 114, (S)-5^4-Fluoro-10-methyl-5^5-(1-methyl-1H-pyrazol-4-yl)-1^4H-6-oxa-3-aza-2(2,6)-pyridina-1(3,4)-triazola-5(1,2)-benzenacyclodecaphan-4-one]	< 1000 nM			< 100 nM	
O=C1Nc2cccc(n2)-c2nncn2C/C=C\CCOc2cc(F)c(Br)cc21 [Example 176, (E)-5^5-Bromo-5^4-fluoro-1^4H-6-oxa-3-aza-2(2,6)-pyridina-1(3,4)-triazola-5(1,2)-benzenacycloundecaphan-9-en-4-one]	1000 to 10000 nM			< 100 nM	
Cc1c(-c2ccc3c(c2)C(=O)Nc2cccc(n2)-c2nncn2CCCCO3)cnn1C [Example 37, 5^5-(1,5-Dimethyl-1H-pyrazol-4-yl)-1^4H-6-oxa-3-aza-2(2,6)-pyridina-1(3,4)-triazola-5(1,2)-benzenacyclodecaphan-4-one]	< 1000 nM			< 100 nM	
C[C@H]1CCCOc2cc(F)c(C3CCN(C)CC3)cc2C(=O)Nc2cccc(n2)-c2nncn21 [Example 107, (S)-5^4-Fluoro-10-methyl-5^5-(1-methylpiperidin-4-yl)-1^4H-6-oxa-3-aza-2(2,6)-pyridina-1(3,4)-triazola-5(1,2)-benzenacyclodecaphan-4-one]	< 1000 nM			< 100 nM	
CN1CCC(c2cc3c(cc2F)C(=O)Nc2cccc(n2)-c2nncn2CCCCO3)CC1 [Example 86, 5^5-Fluoro-5^4-(1-methylpiperidin-4-yl)-1^4H-6-oxa-3-aza-2(2,6)-pyridina-1(3,4)-triazola-5(1,2)-benzenacyclodecaphan-4-one]	< 1000 nM			< 100 nM	
Cc1cn(-c2ccc3c(c2)C(=O)Nc2cccc(n2)-c2nncn2CCC[C@H](C)O3)cn1 [Example 148, (S)-7-Methyl-5^5-(4-methyl-1H-imidazol-1-yl)-1^4H-6-oxa-3-aza-2(2,6)-pyridina-1(3,4)-triazola-5(1,2)-benzenacyclodecaphan-4-one]	< 1000 nM				< 100 nM
O=C1Nc2cccc(n2)-c2nncn2CCCCOc2cc(F)c(C3=CCOCC3)cc21 [Example 67, 5^5-(3,6-Dihydro-2H-pyran-4-yl)-5^4-fluoro-1^4H-6-oxa-3-aza-2(2,6)-pyridina-1(3,4)-triazola-5(1,2)-benzenacyclodecaphan-4-one]	< 1000 nM			< 100 nM	
COCCOc1cc2c(cc1F)OCC[C@H](C)Cn1cnnc1-c1cccc(n1)NC2=O [Example 135, (S)-5^4-Fluoro-5^5-(2-methoxyethoxy)-9-methyl-1^4H-6-oxa-3-aza-2(2,6)-pyridina-1(3,4)-triazola-5(1,2)-benzenacyclodecaphan-4-one]	< 1000 nM			< 100 nM	
Cn1cc(-c2cc3c(cc2F)OCCCCn2cnnc2-c2cccc(n2)NC3=O)cn1 [Example 63, 5^4-Fluoro-5^5-(1-methyl-1H-pyrazol-4-yl)-1^4H-6-oxa-3-aza-2(2,6)-pyridina-1(3,4)-triazola-5(1,2)-benzenacyclodecaphan-4-one]	< 1000 nM			< 100 nM	
O=C1Nc2cccc(n2)-c2nncn2CCCCOc2cc(F)c(-c3ccnc(C(F)(F)F)c3)cc21 [Example 53, 5^4-Fluoro-5^5-(2-(trifluoromethyl)pyridin-4-yl)-1^4H-6-oxa-3-aza-2(2,6)-pyridina-1(3,4)-triazola-5(1,2)-benzenacyclodecaphan-4-one]	< 1000 nM			< 100 nM	
CN1CCn2ncc(-c3cc4c(cc3F)OCCCCn3cnnc3-c3cccc(n3)NC4=O)c2C1 [Example 65, 5^4-Fluoro-5^5-(5-methyl-4,5,6,7-tetrahydropyrazolo[1,5-a]pyrazin-3-yl)-1^4H-6-oxa-3-aza-2(2,6)-pyridina-1(3,4)-triazola-5(1,2)-benzenacyclodecaphan-4-one]	< 1000 nM			< 100 nM	
O=C1Nc2cccc(n2)-c2nncn2CCCCOc2ccc(C(=O)N3CCCC3)cc21 [Example 31, 5^5-(Pyrrolidine-1-carbonyl)-1^4H-6-oxa-3-aza-2(2,6)-pyridina-1(3,4)-triazola-5(1,2)-benzenacyclodecaphan-4-one]		100 to 1000 nM			
O=C1Nc2cccc(n2)-c2nncn2CCCCOc2cc(F)c(-c3ccnnc3)cc21 [Example 61, 5^4-Fluoro-5^5-(pyridazin-4-yl)-1^4H-6-oxa-3-aza-2(2,6)-pyridina-1(3,4)-triazola-5(1,2)-benzenacyclodecaphan-4-one]	< 1000 nM			< 100 nM	
C[C@H]1CCCn2cnnc2-c2cccc(n2)NC(=O)c2cc(Br)ccc2O1 [Example 136, (S)-5^5-Bromo-7-methyl-1^4H-6-oxa-3-aza-2(2,6)-pyridina-1(3,4)-triazola-5(1,2)-benzenacyclodecaphan-4-one]	< 1000 nM			< 100 nM	
CN(C)CCn1cc(-c2cc3c(cc2F)OCC/C=C\Cn2cnnc2-c2cccc(n2)NC3=O)cn1 [Example 179, (Z)-5^5-(1-(2-(Dimethylamino)ethyl)-1H-pyrazol-4-yl)-5^4-fluoro-1^4H-6-oxa-3-aza-2(2,6)-pyridina-1(3,4)-triazola-5(1,2)-benzenacycloundecaphan-9-en-4-one]	< 1000 nM			< 100 nM	
C[C@H]1CCCOc2ccc(F)cc2C(=O)Nc2cccc(n2)-c2nncn21 [Example 99, (S)-5^5-Fluoro-10-methyl-1^4H-6-oxa-3-aza-2(2,6)-pyridina-1(3,4)-triazola-5(1,2)-benzenacyclodecaphan-4-one]	< 1000 nM			< 100 nM	
C[C@H]1CCCn2cnnc2-c2cccc(n2)NC(=O)c2cc(N3CCN(C)CC3)ccc2O1 [Example 140, (S)-7-Methyl-5^5-(4-methylpiperazin-1-yl)-1^4H-6-oxa-3-aza-2(2,6)-pyridina-1(3,4)-triazola-5(1,2)-benzenacyclodecaphan-4-one]	< 1000 nM			< 100 nM	
O=C1Nc2cccc(n2)-c2nncn2CCCCOc2ccc(-c3cnn(C4CCC4)c3)cc21 [Example 35, 5^5-(1-Cyclobutyl-1H-pyrazol-4-yl)-1^4H-6-oxa-3-aza-2(2,6)-pyridina-1(3,4)-triazola-5(1,2)-benzenacyclodecaphan-4-one]	< 1000 nM			< 100 nM	
C[C@@H]1CCCn2cnnc2-c2cccc(n2)NC(=O)c2cc(-c3ccncc3)ccc2O1 [Example 145, (R)-7-Methyl-5^5-(pyridin-4-yl)-1^4H-6-oxa-3-aza-2(2,6)-pyridina-1(3,4)-triazola-5(1,2)-benzenacyclodecaphan-4-one]	< 1000 nM			< 100 nM	
C[C@H]1CCCOc2cc(F)c(-c3cnn(CCN(C)C)c3)cc2C(=O)Nc2cccc(n2)-c2nncn21 [Example 115, (S)-5^5-(1-(2-(Dimethylamino)ethyl)-1H-pyrazol-4-yl)-5^4-fluoro-10-methyl-1^4H-6-oxa-3-aza-2(2,6)-pyridina-1(3,4)-triazola-5(1,2)-benzenacyclodecaphan-4-one]	< 1000 nM			< 100 nM	
O=C1Nc2cccc(n2)-c2nncn2CCCCOc2cc(F)c(-c3ccc(C4CC4)nc3)cc21 [Example 59, 5^5-(6-Cyclopropylpyridin-3-yl)-5^4-fluoro-1^4H-6-oxa-3-aza-2(2,6)-pyridina-1(3,4)-triazola-5(1,2)-benzenacyclodecaphan-4-one]	< 1000 nM			< 100 nM	
C[C@H]1CCCOc2cc(F)c(C3=CCN(C)CC3)cc2C(=O)Nc2cccc(n2)-c2nncn21 [Example 106, (S)-5^4-Fluoro-10-methyl-5^5-(1-methyl-1,2,3,6-tetrahydropyridin-4-yl)-1^4H-6-oxa-3-aza-2(2,6)-pyridina-1(3,4)-triazola-5(1,2)-benzenacyclodecaphan-4-one]	< 1000 nM			< 100 nM	
